Reference: patent publication US12286443B2, “Bycyclic JAK inhibitors and uses thereof” (Insilico Medicine IP Limited, priority 2019, dated 2025)

Columns and labels:
[1] = target: T1, JAK3 (Homo sapiens, UniProt P52333); test: Inhibition of JAK3 kinase, LANCE Ultra TR-FRET assay; format: biochemical; conditions: 2x ATP 8 μM, 15 min pre-incubation, 90 min reaction, 23° C.
T1 construct: purchased Invitrogen PV4080
T1 sequence (P52333 1-1124): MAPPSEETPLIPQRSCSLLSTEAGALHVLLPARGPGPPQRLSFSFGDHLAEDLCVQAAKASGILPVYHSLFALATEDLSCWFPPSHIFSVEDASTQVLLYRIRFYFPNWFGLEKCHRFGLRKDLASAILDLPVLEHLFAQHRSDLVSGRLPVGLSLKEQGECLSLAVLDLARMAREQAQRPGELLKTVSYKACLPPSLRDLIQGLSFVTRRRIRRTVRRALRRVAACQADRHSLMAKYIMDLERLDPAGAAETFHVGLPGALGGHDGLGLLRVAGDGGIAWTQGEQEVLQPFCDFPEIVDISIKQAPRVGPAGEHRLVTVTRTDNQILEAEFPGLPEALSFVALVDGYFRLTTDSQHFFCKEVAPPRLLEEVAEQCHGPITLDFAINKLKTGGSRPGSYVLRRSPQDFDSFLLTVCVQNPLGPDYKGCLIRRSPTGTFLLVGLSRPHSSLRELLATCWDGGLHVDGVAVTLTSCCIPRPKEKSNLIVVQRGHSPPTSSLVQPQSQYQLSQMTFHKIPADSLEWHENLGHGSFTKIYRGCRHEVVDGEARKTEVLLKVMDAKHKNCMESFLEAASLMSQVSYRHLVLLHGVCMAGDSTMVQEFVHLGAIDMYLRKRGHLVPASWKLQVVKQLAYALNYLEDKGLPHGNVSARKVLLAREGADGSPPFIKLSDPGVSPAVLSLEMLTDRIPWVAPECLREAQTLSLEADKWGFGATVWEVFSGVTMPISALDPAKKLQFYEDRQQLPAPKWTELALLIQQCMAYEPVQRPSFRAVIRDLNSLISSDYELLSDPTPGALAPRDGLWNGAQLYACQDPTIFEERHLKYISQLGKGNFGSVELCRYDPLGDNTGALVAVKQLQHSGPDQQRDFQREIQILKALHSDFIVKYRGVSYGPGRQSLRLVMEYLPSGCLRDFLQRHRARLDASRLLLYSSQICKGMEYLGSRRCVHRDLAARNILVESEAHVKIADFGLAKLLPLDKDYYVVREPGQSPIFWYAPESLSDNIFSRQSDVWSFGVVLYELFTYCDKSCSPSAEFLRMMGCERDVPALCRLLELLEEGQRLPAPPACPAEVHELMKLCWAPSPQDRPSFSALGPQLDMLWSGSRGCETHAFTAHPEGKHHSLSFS
Description: (§1) Exemplary compounds were assayed to determine potency in inhibiting activity of JAK1-3 and TYK2 kinases by determining IC50 values.
(§2) The sources of test materials and equipment are as follows: JAK1 (Invitrogen, Cat. No PV4775), JAK2 (Invitrogen, Cat. No PV4210), JAK3 (Invitrogen, Cat. No PV4080), TYK2 (Invitrogen, Cat. No PR8440C), ATP (Sigma, Cat. No. A7699-1G), DMSO (Sigma, Cat. No. D2650), DTT (Sigma, Cat. No. 43815), 384 wells_compound plate (Greiner, Cat. No. 781280), 384 wells_assay plate (Perkin Elmer, Cat. No. 6007299), LANCE Ultra ULight™-JAK-1 peptide (Perkin Elmer, Cat. No. TRF0121), LANCET™ Eu-W1024 Anti-phosphotyrosine (PT66) (Perkin Elmer, Cat. No. AD0069), LANCET™ Detection Buffer(Perkin Elmer, Cat. No. CR97-100).
(§3) The concentrations of test compounds varied from 100 μM to 1.7 nM with 3-fold dilution, 11 points, in duplicates while the concentrations of the reference compound, Tofacitinib, varied from 1 μM to 0.017 nM with 3-fold dilution, 11 points, in duplicates.
(§4) The assay buffer contained 50 mM HEPES (pH 7.5), 0.01% Brij-35, 10 mM MgCl2, 1 mM EDTA, 2 mM DTT. Incubations were carried out at 23° C.
(§5) Prior to the assay, enzyme, peptide substrate and serially diluted test compounds were pre-incubated together in assay buffer (5 μL) for 15 minutes (peptide substrate concentration: 50 nM; JAK enzyme concentrations: 2 nM JAK1; […]; […] and 4 nM TYK2). And the assay was initiated by the addition of 5 μL assay buffer containing 2× final ATP concentration (these are the 2×ATP concentrations: 76 μM JAK1; 24 μM JAK2; 8 μM JAK3 and 30 μM TYK2). Following the 90-minute incubation, antibody conjugated with Eu is dissolved in detection buffer to add into wells and then incubated for 60 minutes. The 10 μL detection buffer contains EDTA to stop the enzymatic reaction. The plate is analyzed by Perkin Elmer Envision on TR-FRET mode. The high ratio of 665/615 represents no inhibition of kinase reaction while the low ratio of 665/615 represents complete inhibition of kinase reaction.
(§6) Curves are fit by XLFIT5 as inhibition rate % vs. log [compound concentration] using 4 parameters logistic model 205.
(§7) In the table, “A” indicates an IC50 of less than 100 nM, “B” indicates an IC50 range from 100 nM to 500 nM; “C” indicates an IC50 range from 500 nM to 2 μM; and “D” indicates an IC50 greater than 2 μM. Also, “na” indicates data is not available.

[2] = test system: Hut-78 cells; test: Inhibition in Hut-78 cells (IL-2 stimulated, HTRF); format: cell-based; conditions: Homo sapiens, HuT78; compound 2 hours at 37° C., then IL-2 100 ng/mL 10 min; HTRF; read-out: Hut-78 cells IC50
Description: Exemplary compounds were assayed to determine potency in inhibiting Hut-78 cells by determining IC50 values.
Hut-78 cells were cultures in IMDM+20% FBS medium. Cells were maintained in log phase before the assay. Cell pellets were collected and resuspended in serum-free and phenol-free RPMI 1640 medium. 40,000 cells/well (10 μL) were seeded in each well of a 384-well plate and incubated with and without compound for 2 hours at 37° C. and 5% C02. IL-2 was added (2 μL, final concentration 100 ng/mL) and the mixture was incubated for 10 min. Cells were lysed by adding 4 μL labeled antibodies and the mixture was incubated overnight. The plate was read using the HTRF protocol on an Envision plate reader. The data was analyzed using XL-fit software (Supplier: ID business solutions Ltd.; Software version: XL fit 5.0). Inhibition %=(Max−Sample value)/(Max−Min)*100.
In the table, “A” indicates an IC50 of less than 0.5 μM, “B” indicates an IC50 range from 0.5 μM to 1 μM; and “C” indicates an IC50 range from 1 μM to 10 μM. Also, “na” indicates data is not available.

[3] = target: T2, JAK2 (Homo sapiens, UniProt O60674); test: Inhibition of JAK2 kinase, LANCE Ultra TR-FRET assay; format: biochemical; conditions: 2x ATP 24 μM, 15 min pre-incubation, 90 min reaction, 23° C.
T2 construct: purchased Invitrogen PV4210
T2 sequence (O60674 whole entry): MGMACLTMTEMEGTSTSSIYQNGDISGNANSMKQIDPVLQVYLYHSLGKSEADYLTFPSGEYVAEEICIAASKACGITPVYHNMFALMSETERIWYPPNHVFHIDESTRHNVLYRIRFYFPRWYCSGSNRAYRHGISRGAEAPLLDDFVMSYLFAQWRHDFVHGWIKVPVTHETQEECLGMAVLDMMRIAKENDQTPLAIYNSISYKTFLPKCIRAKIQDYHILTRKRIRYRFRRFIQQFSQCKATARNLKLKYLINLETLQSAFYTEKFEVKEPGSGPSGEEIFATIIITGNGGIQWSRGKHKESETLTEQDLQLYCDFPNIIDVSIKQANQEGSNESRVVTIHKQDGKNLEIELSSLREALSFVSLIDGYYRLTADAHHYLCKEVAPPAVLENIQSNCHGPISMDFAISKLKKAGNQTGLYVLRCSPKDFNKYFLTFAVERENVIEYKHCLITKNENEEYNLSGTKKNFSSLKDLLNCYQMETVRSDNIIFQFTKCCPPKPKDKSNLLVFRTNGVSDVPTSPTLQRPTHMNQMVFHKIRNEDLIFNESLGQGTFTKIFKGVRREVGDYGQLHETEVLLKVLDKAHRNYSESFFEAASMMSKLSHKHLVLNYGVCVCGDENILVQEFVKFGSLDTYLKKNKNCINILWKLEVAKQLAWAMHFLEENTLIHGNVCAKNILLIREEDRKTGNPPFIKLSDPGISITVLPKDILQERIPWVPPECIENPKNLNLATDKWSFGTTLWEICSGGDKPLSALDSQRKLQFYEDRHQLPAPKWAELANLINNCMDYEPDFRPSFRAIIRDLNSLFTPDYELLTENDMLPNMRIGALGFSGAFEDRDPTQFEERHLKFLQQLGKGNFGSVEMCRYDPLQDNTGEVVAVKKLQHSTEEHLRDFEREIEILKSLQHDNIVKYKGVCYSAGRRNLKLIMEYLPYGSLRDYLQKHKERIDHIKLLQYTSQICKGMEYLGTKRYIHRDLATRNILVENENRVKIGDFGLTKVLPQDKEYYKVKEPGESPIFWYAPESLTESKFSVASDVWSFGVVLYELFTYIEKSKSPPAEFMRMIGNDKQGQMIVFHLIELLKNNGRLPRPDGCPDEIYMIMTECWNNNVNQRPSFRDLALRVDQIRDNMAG
Description: as §1, §2, §3, §4, §5, §6, §7

[4] = target: T3, JAK1 (Homo sapiens, UniProt P23458); test: Inhibition of JAK1 kinase, LANCE Ultra TR-FRET assay; format: biochemical; conditions: 2 nM JAK1, 2x ATP 76 μM, 15 min pre-incubation, 90 min reaction, 23° C.
T3 construct: purchased Invitrogen PV4775
T3 sequence (P23458 whole entry): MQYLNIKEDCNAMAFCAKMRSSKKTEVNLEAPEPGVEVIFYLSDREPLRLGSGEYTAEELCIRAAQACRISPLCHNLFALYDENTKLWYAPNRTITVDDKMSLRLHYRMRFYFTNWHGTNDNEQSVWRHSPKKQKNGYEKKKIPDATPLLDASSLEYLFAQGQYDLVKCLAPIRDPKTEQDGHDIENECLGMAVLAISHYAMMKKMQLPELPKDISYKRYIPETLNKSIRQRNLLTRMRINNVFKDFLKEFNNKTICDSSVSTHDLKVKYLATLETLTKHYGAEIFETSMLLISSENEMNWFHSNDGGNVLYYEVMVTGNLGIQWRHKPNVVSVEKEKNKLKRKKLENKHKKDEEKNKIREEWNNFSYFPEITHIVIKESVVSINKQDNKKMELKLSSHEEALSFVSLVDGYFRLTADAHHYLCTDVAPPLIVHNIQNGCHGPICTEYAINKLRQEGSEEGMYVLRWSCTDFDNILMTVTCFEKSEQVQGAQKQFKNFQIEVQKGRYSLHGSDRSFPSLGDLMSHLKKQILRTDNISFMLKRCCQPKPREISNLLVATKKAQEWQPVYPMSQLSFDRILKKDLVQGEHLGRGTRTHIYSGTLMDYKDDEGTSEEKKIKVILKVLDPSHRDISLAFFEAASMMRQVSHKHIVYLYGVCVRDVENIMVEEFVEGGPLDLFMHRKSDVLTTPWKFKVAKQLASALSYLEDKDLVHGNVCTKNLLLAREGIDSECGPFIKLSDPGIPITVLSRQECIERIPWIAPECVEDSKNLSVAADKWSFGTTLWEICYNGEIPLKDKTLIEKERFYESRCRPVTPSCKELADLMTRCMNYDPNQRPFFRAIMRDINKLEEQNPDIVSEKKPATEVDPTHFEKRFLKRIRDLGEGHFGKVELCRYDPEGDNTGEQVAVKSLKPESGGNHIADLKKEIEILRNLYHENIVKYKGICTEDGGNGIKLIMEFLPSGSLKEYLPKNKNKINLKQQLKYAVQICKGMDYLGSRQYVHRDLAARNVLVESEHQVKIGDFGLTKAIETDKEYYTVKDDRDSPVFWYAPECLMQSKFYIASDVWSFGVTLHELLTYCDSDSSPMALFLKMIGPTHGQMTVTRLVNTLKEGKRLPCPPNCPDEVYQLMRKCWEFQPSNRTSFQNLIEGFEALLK
Description: as §1, §2, §3, §4, §5, §6, §7

[5] = target: T4, TYK2 (Homo sapiens, UniProt P29597); test: Inhibition of TYK2 kinase, LANCE Ultra TR-FRET assay; format: biochemical; conditions: 4 nM TYK2, 2x ATP 30 μM, 15 min pre-incubation, 90 min reaction, 23° C., read-out: tyk IC50
T4 construct: purchased Invitrogen PR8440C
T4 sequence (P29597 whole entry): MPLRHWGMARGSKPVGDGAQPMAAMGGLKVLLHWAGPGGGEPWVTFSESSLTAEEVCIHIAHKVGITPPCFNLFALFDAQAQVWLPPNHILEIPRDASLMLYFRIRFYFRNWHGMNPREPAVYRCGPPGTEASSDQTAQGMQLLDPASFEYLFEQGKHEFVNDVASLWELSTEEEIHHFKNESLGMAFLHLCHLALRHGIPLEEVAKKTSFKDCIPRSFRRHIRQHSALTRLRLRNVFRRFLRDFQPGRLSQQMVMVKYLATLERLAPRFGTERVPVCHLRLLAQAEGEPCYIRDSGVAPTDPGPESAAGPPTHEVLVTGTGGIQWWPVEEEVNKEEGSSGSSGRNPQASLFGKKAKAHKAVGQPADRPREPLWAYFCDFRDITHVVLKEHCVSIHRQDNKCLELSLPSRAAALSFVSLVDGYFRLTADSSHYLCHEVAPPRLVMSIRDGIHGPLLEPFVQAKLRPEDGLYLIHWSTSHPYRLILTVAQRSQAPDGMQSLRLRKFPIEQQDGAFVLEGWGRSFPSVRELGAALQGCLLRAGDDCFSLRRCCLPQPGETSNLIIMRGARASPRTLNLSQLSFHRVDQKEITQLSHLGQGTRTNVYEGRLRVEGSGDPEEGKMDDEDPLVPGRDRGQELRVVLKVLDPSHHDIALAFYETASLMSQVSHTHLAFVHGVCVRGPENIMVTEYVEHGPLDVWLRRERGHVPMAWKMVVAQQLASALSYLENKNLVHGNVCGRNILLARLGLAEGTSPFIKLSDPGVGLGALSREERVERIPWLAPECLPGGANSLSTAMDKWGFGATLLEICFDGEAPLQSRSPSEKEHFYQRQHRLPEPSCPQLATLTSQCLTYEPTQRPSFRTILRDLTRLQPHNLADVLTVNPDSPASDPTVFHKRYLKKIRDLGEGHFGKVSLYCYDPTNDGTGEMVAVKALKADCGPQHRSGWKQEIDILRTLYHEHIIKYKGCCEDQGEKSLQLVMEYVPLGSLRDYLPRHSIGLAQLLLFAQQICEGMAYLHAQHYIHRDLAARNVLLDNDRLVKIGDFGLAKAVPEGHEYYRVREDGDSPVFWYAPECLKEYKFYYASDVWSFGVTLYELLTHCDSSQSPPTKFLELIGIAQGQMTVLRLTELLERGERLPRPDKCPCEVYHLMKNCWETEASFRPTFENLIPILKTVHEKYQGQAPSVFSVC
Description: as §1, §2, §3, §4, §5, §6, §7

Row | SMILES | IC50 [1] [nM] | IC50 [2] [nM] | IC50 [3] [nM] | IC50 [4] [nM] | IC50 [5] [nM]
1 | O=C(NC(CO)CC(F)(F)F)c1noc2c1CN(c1ncnc3[nH]ccc13)CC2 (stereo not drawn) [Compound 186] | < 100 | < 500 | < 100 | < 100 | 100 to 500
2 | O=C(NCCC(F)(F)F)c1noc2c1CN(c1ncnc3[nH]ccc13)CC21CC1 [Compound 192] | < 100 | 500 to 1000 | 100 to 500 | < 100 | > 2000
3 | O=C(NCC1CC(F)(F)C1)c1noc2c1CN(c1ncnc3[nH]ccc13)CC2 [Compound 198] | < 100 | < 500 | 100 to 500 | < 100 | > 2000
4 | O=C(NC1CC(O)(C(F)(F)F)C1)c1noc2c1CN(c1ncnc3[nH]ccc13)CC2 (stereo not drawn) [Compound 201] | < 100 | < 500 | 100 to 500 | < 100 | > 2000
5 | CC1(CNC(=O)c2noc3c2CN(c2ncnc4[nH]ccc24)CC3)CC(F)(F)C1 [Compound 199] | < 100 | < 500 | 100 to 500 | < 100 | 500 to 2000
6 | N#Cc1cn(C(=O)NCCC(F)(F)F)c2c1CCN(c1ncnc3[nH]ccc13)C2 [Compound 143] | < 100 | 1000 to 10000 | 100 to 500 | 100 to 500 | 500 to 2000
7 | O=C(NCCC(F)(F)F)c1nn(C(=O)CCc2ccccc2)c2c1CN(c1ncnc3[nH]ccc13)CC2 [Compound 103] | < 100 | 1000 to 10000 | 100 to 500 | 100 to 500 | > 2000
8 | O=C(NCC1CC1(F)F)c1noc2c1CN(c1ncnc3[nH]ccc13)CC2 (stereo not drawn) [Compound 179] | < 100 | 1000 to 10000 | 100 to 500 | 100 to 500 | > 2000
9 | O=C(NCCC(F)(F)F)c1n[nH]c2c1CN(c1ncnc3[nH]ccc13)CC2 [Compound 109] | < 100 | 1000 to 10000 | 100 to 500 | < 100 | 500 to 2000
